Measurements published in ChEMBL document CHEMBL6109128, “Copper-KRAS-COX2 Axis: A Therapeutic Vulnerability in Pancreatic Cancer” (J Med Chem, 2025).
The source made the active and inactive calls. The rule behind the calls is not given here.

Tests used:
[1] = test system: MIA PaCa-2; experiment: Cytotoxicity against human MIA PaCa-2 cells by MTT assay; assay type: functional, cell-based
[2] = Metabolic stability in mouse liver microsome assessed as half life measured up to 60 mins by LC-MS/MS analysis; assay type: ADME; conditions: liver microsomes
[3] = test system: BXPC-3; experiment: Cytotoxicity against human BXPC-3 cells by MTT assay; assay type: functional, cell-based
[4] = test system: SU.86.86; experiment: Cytotoxicity against human SU-86-86 cells by MTT assay; assay type: functional, cell-based
[5] = Cytotoxicity against mouse KPC2 cells by MTT assay; assay type: functional, cell-based
[6] = test system: HCT-116; experiment: Cytotoxicity against human HCT-116 cells assessed as cell death up to 1 uM incubated for 6 days in presence of NAC; assay type: functional, cell-based; conditions: time 6.0 day
[7] = test system: PANC-1; experiment: Cytotoxicity against human PANC-1 cells by MTT assay; assay type: functional, cell-based
[8] = test system: Panc02; experiment: Cytotoxicity against mouse Panc02 cells by MTT assay; assay type: functional, cell-based
[9] = test system: MIA PaCa-2; experiment: Cytotoxicity against human MIA PaCa-2 cells assessed as cell death up to 0.1 uM incubated for 6 days in presence of NAC; assay type: functional, cell-based; conditions: time 6.0 day
[10] = Metabolic stability in human liver microsome assessed as half life measured up to 60 mins by LC-MS/MS analysis; assay type: ADME; conditions: liver microsomes
[11] = Drug metabolism in mouse plasma assessed as 5-(5-methyl-2,5-diazabicyclo[2.2.1]hept-3-en-2-yl)pyrazine-2-carbaldehyde metabolite formation by measuring Retention time measured after 1 hr by LC-MS/MS analysis; assay type: ADME, cell-free
[12] = Drug metabolism in mouse plasma assessed as 5-(2,5-diazabicyclo[2.2.1]heptan-2-yl)-N-(6-fluoroquinolin-8-yl)pyrazine-2-carboxamide metabolite formation by measuring Retention time measured after 1 hr by LC-MS/MS analysis; assay type: ADME, cell-free
[13] = Drug metabolism in mouse plasma assessed as retention time measured after 1 hr by LC-MS/MS analysis; assay type: ADME, cell-free
[14] = Drug metabolism in mouse plasma assessed as 6-fluoro-8-isocyanatoquinoline metabolite formation by measuring Retention time measured after 1 hr by LC-MS/MS analysis; assay type: ADME, cell-free
[15] = Drug metabolism in mouse plasma assessed as 6-fluoroquinolin-8-amine metabolite formation by measuring Retention time measured after 1 hr by LC-MS/MS analysis; assay type: ADME, cell-free
[16] = Drug metabolism in mouse plasma assessed as 5-(5-((6-fluoroquinolin-8-yl)carbamoyl)pyrazin-2-yl)-2-methyl-2,5-diazabicyclo[2.2.1]heptane 2-oxide metabolite formation by measuring Retention time measured after 1 hr by LC-MS/MS analysis; assay type: ADME, cell-free
[17] = Toxicity in C57BL/6 mouse assessed as body weight loss at 20 to 40 mg/kg, ip administered for 28 days; assay type: organism-based; conditions: in vivo, 672 h, dose 20-40 mg/kg, time 28 day

CN1CCN(c2cnc(C(=O)Nc3cccc4ccccc34)cn2)CC1
IC50 [1]: > 30 µM

C[C@@H]1CN(c2cnc(C(=O)Nc3cc(F)cc4cccnc34)cn2)CCN1
IC50 [1]: 0.5 µM

Cc1cc(NC(=O)c2cnc(N3CCC4(CC3)CO[C@@H](C)[C@H]4N)cn2)c2ncccc2c1
IC50 [1]: 1 µM | half-life [2]: 11.7 min

NC1CC2(CCN(c3cnc(C(=O)Nc4cc(F)cc5cccnc45)cn3)CC2)C1
IC50 [1]: 3 µM

O=C(Nc1cc(F)cc2cccnc12)c1cnc(N2CCNC(C(F)(F)F)C2)cn1 (configuration not stated)
IC50 [1]: 0.8 µM

C[C@@H]1CNCCN1c1cnc(C(=O)Nc2cc(F)cc3cccnc23)cn1
IC50 [1]: 0.4 µM

Cc1cc(NC(=O)CNCCN2CCN(C)CC2)c2ncccc2c1
IC50 [1]: > 30 µM

O=C(Nc1cc(F)cc2cccnc12)c1cnc(N2CCN3CCCC3C2)cn1 (configuration not stated)
IC50 [1]: 1.7 µM

O=C(Nc1cc(F)cc2cccnc12)c1cnc(N2CCC(F)(F)CC2)cn1
IC50 [1]: 3.7 µM

Cc1cc(NC(=O)c2ccc(N3CCN(C)CC3)cc2)c2ncccc2c1
IC50 [1]: 25.8 µM

CC1CNCCCN1c1cnc(C(=O)Nc2cc(F)cc3cccnc23)cn1 (configuration not stated)
IC50 [1]: 1.1 µM

N[C@@H]1CN(c2cnc(C(=O)Nc3cc(F)cc4cccnc34)cn2)CC12COC2
IC50 [1]: 11.6 µM

CN(C)C/C=C/C(=O)N1CCN(c2cnc(C(=O)Nc3cc(F)cc4cccnc34)cn2)CC1
IC50 [1]: 4.4 µM

CCN(CC)C(=S)SSC(=S)N(CC)CC [DISULFIRAM]
IC50 [1]: 0.1 µM | IC50 [3]: 0.3 µM | IC50 [4]: 0.3 µM | IC50 [5]: 0.2 µM | Activity [6]: Active | IC50 [7]: 0.1 µM | IC50 [8]: 0.1 µM

C=CC(=O)N1CCN(c2cnc(C(=O)Nc3cc(C)cc4cccnc34)cn2)CC1
IC50 [1]: 0.9 µM | half-life [2]: 3 min

N[C@@H]1CCN(c2cnc(C(=O)Nc3cc(F)cc4cccnc34)cn2)C[C@@H]1F
IC50 [1]: 1.1 µM

O=C(Nc1cc(F)cc2cccnc12)c1cnc(N2CC3C(C2)C3(F)F)cn1 (configuration not stated)
IC50 [1]: 5.4 µM

O=C(Nc1cc(F)cc2cccnc12)c1cnc(N2CC3CC2CO3)cn1 (configuration not stated)
IC50 [1]: 0.9 µM

NC1CCC2(CC1)CN(c1cnc(C(=O)Nc3cc(F)cc4cccnc34)cn1)C2
IC50 [1]: 4.7 µM

N[C@@H]1CCCC12CCN(c1cnc(C(=O)Nc3cc(F)cc4cccnc34)cn1)CC2
IC50 [1]: 1.5 µM

O=C(Nc1cc(F)cc2cccnc12)c1cnc(N2CCNC(F)C2)cn1 (configuration not stated)
IC50 [1]: 3.4 µM

O=C(Nc1cc(F)cc2cccnc12)c1cnc(N2CCn3cnnc3C2)cn1
IC50 [1]: > 30 µM

O=C(Nc1cccc2ccccc12)c1cnc(N2CCNCC2)cn1
IC50 [1]: > 30 µM

NC1CC2(C1)CN(c1cnc(C(=O)Nc3cc(F)cc4cccnc34)cn1)C2
IC50 [1]: 5.5 µM

O=C(Nc1cc(F)cc2cccnc12)c1cnc(N2C[C@@H](O)CC2=O)cn1
IC50 [1]: 4.7 µM

Cc1cc(NC(=O)c2cnc(N3CCN(S(C)(=O)=O)CC3)cn2)c2ncccc2c1
IC50 [1]: 1 µM

O=C(Nc1cc(F)cc2cccnc12)c1cnc(N2CC3CC2CS3(=O)=O)cn1 (configuration not stated)
IC50 [1]: 1.4 µM

CC1(N)CN(c2cnc(C(=O)Nc3cc(F)cc4cccnc34)cn2)C1
IC50 [1]: 2.1 µM

CN(NC(=O)CC(=O)NN(C)C(=S)c1ccccc1)C(=S)c1ccccc1 [ELESCLOMOL]
IC50 [1]: 0.02 µM | IC50 [3]: 0.05 µM | IC50 [4]: 0.02 µM | IC50 [5]: 0.2 µM | Activity [9]: Active | IC50 [7]: 0.03 µM | IC50 [8]: 0.01 µM

CS(=O)(=O)N1CCN(c2cnc(C(=O)Nc3cc(F)cc4cccnc34)cn2)CC1
IC50 [1]: 3.3 µM

Cc1cc(NCc2cnc(N3CCNCC3)cn2)c2ncccc2c1
IC50 [1]: 17.6 µM

O=C(Nc1cc(F)cc2cccnc12)c1cnc(N2CCNC3(CC3)C2)cn1
IC50 [1]: 0.8 µM

O=C(Nc1cc(F)cc2cccnc12)c1cnc(N2CCC(O)(C(F)(F)F)CC2)cn1
IC50 [1]: 2.1 µM

CN1CCN(c2cnc(C(=O)Nc3cc(F)cc4cccnc34)cn2)CC1
IC50 [1]: 0.7 µM

O=C(Nc1cc(F)cc2cccnc12)c1cnc(N2CCNCC2)cn1
IC50 [1]: 0.4 µM | half-life [10]: > 60 min | half-life [2]: 1.8 min

Cc1cc(NC(=O)c2cnc(N3C[C@@H]4[C@@H](N)[C@@H]4C3)cn2)c2ncccc2c1
IC50 [1]: 0.5 µM | half-life [2]: > 60 min

CN1CC2CC1CN2c1cnc(C(=O)Nc2cc(F)cc3cccnc23)cn1 (configuration not stated)
Retention_time [11]: 6.19 min | Retention_time [12]: 6.22 min | Retention_time [13]: 6.22 min | Retention_time [14]: 6.23 min | IC50 [1]: 0.1 µM | Retention_time [15]: 6.23 min | half-life [10]: > 60 min | half-life [2]: 10.5 min | Retention_time [16]: 6.44 min

NC1CCCN(c2cnc(C(=O)Nc3cc(F)cc4cccnc34)cn2)C1 (configuration not stated)
IC50 [1]: 1.8 µM

O=C(Nc1cc(F)cc2cccnc12)c1cnc(N2CCn3c(nnc3C(F)(F)F)C2)cn1
IC50 [1]: 4.1 µM

Cc1cc(NC(=O)c2cnc(N3CCN(C(=O)C4CC4)CC3)cn2)c2ncccc2c1
IC50 [1]: 1.2 µM

O=C(Nc1cc(F)cc2cccnc12)c1cnc(N2CCOCC2)cn1
IC50 [1]: 1 µM

Cc1cc(C(=O)Nc2ccc(N3CCN(C)CC3)nc2)c2ncccc2c1
IC50 [1]: 21.5 µM

C[C@@H]1CN(c2cnc(C(=O)Nc3cc(F)cc4cccnc34)cn2)C[C@H](C)N1
IC50 [1]: 0.3 µM

N[C@H]1CN(c2cnc(C(=O)Nc3cc(F)cc4cccnc34)cn2)C[C@H]1F
IC50 [1]: 0.3 µM | half-life [10]: > 60 min | half-life [2]: > 60 min

CCN(CC)C1CCN(c2cnc(C(=O)Nc3cc(F)cc4cccnc34)cn2)CC1
IC50 [1]: 0.5 µM

CN1CNC(=O)C12CCN(c1cnc(C(=O)Nc3cc(F)cc4cccnc34)cn1)CC2
IC50 [1]: 2.9 µM

O=C(Nc1cc(F)cc2cccnc12)c1cnc(N2CCC(O)C2)cn1 (configuration not stated)
IC50 [1]: 1 µM

O=C(Nc1cc(F)cc2cccnc12)c1cnc(N2CC3CC2CN3)cn1 (configuration not stated)
IC50 [1]: 9.4 µM

NC1C2CCC1CN(c1cnc(C(=O)Nc3cc(F)cc4cccnc34)cn1)C2 (configuration not stated)
IC50 [1]: 0.8 µM | Activity [17]: Non-toxic | half-life [10]: > 60 min | half-life [2]: > 60 min

CC1(C)CN(c2cnc(C(=O)Nc3cc(F)cc4cccnc34)cn2)CCN1
IC50 [1]: 0.3 µM

O=C(Nc1cc(F)cc2cccnc12)c1cnc(N2CCC(F)C2)cn1 (configuration not stated)
IC50 [1]: 2.8 µM

CN1C2CCC1CN(c1cnc(C(=O)Nc3cc(F)cc4cccnc34)cn1)C2
IC50 [1]: 0.4 µM | half-life [10]: > 60 min | half-life [2]: 13.5 min

O=C(Nc1cc(F)cc2cccnc12)c1cnc(N2CCC(N3CCCC3)CC2)cn1
IC50 [1]: 0.5 µM

Cc1cc(NC(=O)c2cnc(N3CCNCC3)cn2)c2ncccc2c1
IC50 [1]: 0.9 µM | half-life [2]: 4 min
